Source: patent US11253524B2 (Gilead Sciences, Inc., priority 2018, dated 2022)

Key:
MRP2 (ABCC2) = target: T1, MRP2 (ABCC2) (Homo sapiens, UniProt Q92887); assay: in vitro; assay type: biochemical; conditions: human
T1 construct: host or cells: membrane vesicle preparations
Method: (§1) Cells and experimental conditions for the transporter inhibition assays are summarized below in Table 7. […] M15, M20, and M23 were prepared according to the procedures described herein. All other materials were purchased by SOLVO Biotechnology and experiments were conducted according to SOLVO Standard Operating Procedures (SOPs) of its certified ISO 9001:2008 system. Lot and product information was recorded by SOLVO Biotechnology.
(§2) Test compounds and positive control was incubated with membrane vesicle preparations (total protein: 50 μg/well) and the model substrate in the absence or presence of ATP. Reaction mixtures were preincubated for 15 minutes at 37° C. Reactions were started by the addition of 25 μL of 12 mM MgATP or AMP assay buffer (for background controls) preincubated separately. Reactions were stopped after 5 min by the addition of 200 μL of ice-cold washing buffer and immediate filtration via glass fiber filters mounted to a 96-well plate (filter plate). The filters were washed, dried and the amount of substrate inside the filtered vesicles determined by liquid scintillation. A positive control inhibitor was tested in parallel. Control membranes lacking transporter expression were used as negative control. All assays were performed in duplicate.
(§3) Fractional transport activities were calculated from the following equation: Activity %=(A−B)/(C−D)×100 where A is translocated amount of substrate in the presence of TA and ATP, B is translocated amount of substrate in the presence of TA, C is translocated amount of substrate in the presence of solvent and ATP, and D is translocated amount of substrate in the presence of solvent. IC50 Determination in Transporter Assays
(§4) IC50 is defined as the test article concentration needed to inhibit the maximal transporter specific transport by 50%. IC50 values were calculated using non-linear fitting of % inhibition versus concentration to a sigmoidal curve with a variable Hill Coefficient using GraphPad Prism 5 (GraphPad Software Inc., San Diego, Calif.). If the % inhibition was less than 50% at the highest concentration tested, the IC50 was not determined. No inhibition observed (NIO) is reported for relative inhibition results <20% and no concentration dependent transport observed up to the highest concentration tested.

[1] = target: T2, multidrug-resistance protein 2 (MRP2; ABCC2) (Homo sapiens, UniProt Q92887); assay: biochemical; assay type: biochemical
T2 construct: host or cells: membrane vesicle preparations
Method: as §1, §2, §3, §4

[2] = target: T3, human hepatic microsomal UGT1A1 (Homo sapiens, UniProt P22309); assay: biochemical; conditions: for Stimulation of enzyme activity, peak increase: at 200 μM
T3 sequence (P22309 26-533): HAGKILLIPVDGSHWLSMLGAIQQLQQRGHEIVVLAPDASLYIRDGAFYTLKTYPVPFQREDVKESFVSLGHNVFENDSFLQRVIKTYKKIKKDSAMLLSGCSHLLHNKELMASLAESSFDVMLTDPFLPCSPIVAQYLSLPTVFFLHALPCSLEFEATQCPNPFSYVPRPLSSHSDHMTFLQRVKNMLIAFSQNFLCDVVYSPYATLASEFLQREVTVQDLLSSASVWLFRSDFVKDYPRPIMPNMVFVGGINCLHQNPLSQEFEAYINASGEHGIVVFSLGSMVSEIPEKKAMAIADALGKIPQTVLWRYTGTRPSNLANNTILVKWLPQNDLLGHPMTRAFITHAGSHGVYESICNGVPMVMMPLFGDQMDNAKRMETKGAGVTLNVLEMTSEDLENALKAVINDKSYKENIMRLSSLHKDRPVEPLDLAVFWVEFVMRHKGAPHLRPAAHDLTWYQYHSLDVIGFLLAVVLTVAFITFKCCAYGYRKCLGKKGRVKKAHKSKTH
Method: The conditions for the assay were determined to be linear with respect to microsomal protein concentration and incubation time. […] Microsomal UGT1A1 activity was determined in duplicate. […] Diluted microsomal fraction was incubated on ice for 15 minutes with alamethicin, magnesium chloride and SACLAC. Substrate and inhibitor were then added and the mixture warmed to 37° C. for 0.5 minute. The reaction was initiated by the addition of UDP glucuronic acid in potassium phosphate buffer. The incubation continued at 37° C. with shaking and no light exposure for 2 minutes. Reactions were terminated by addition of one volume of 200 mM ascorbic acid in methanol, containing 200 nM 2-(N-(2-ethylphenyl)methylsulfonamido)-N-(2-(pyridin-2-ylthio)ethyl)acetamide as the internal standard.
A Shimadzu UFLC XR UPLC system was used for analysis. The column used was a Thermo-Hypersil Gold 1.9 μm C18 column (30×2.1 mm) held at 60° C. Mobile phases were; A: water containing 0.1% (v/v) formic acid, and B: acetonitrile containing 0.1% (v/v) formic acid, pumped at 0.7 mL/minute. Elution was achieved by a series of linear gradients over 2 minutes. The mass spectrometer was an Applied Biosciences SCIEX QTRAP 5500 triple quadrupole mass spectrometer with an electrospray interface operating in positive ion mode. Quantification was by metabolite/internal standard peak area ratio (PAR).
MS/MS transitions ([M+H]+) of m/z 761.2/475.1 and 937.2/475.1 for the monoglucuronide and diglucuronide, respectively. The PAR values for the two monoglucuronides were combined for quantification.
Reaction velocities were calculated from the rates of formation of the metabolites and were compared to those seen with the vehicle control (100% activity). IC50 values were calculated by non-linear regression using GraphPad Prism 7.03 and a sigmoidal three parameter inhibition model. […] During the testing period the inhibitory potency of atazanavir was determined four times, with each concentration tested in duplicate in each determination. The data from all runs were pooled and a global fit performed to determine the lower plateau value. […] For atazanavir, the IC50 values from the four duplicate runs were combined to generate a summary geometric mean and multiplicative standard deviation for this positive control inhibitor.

T2 sequence (Q92887 whole entry): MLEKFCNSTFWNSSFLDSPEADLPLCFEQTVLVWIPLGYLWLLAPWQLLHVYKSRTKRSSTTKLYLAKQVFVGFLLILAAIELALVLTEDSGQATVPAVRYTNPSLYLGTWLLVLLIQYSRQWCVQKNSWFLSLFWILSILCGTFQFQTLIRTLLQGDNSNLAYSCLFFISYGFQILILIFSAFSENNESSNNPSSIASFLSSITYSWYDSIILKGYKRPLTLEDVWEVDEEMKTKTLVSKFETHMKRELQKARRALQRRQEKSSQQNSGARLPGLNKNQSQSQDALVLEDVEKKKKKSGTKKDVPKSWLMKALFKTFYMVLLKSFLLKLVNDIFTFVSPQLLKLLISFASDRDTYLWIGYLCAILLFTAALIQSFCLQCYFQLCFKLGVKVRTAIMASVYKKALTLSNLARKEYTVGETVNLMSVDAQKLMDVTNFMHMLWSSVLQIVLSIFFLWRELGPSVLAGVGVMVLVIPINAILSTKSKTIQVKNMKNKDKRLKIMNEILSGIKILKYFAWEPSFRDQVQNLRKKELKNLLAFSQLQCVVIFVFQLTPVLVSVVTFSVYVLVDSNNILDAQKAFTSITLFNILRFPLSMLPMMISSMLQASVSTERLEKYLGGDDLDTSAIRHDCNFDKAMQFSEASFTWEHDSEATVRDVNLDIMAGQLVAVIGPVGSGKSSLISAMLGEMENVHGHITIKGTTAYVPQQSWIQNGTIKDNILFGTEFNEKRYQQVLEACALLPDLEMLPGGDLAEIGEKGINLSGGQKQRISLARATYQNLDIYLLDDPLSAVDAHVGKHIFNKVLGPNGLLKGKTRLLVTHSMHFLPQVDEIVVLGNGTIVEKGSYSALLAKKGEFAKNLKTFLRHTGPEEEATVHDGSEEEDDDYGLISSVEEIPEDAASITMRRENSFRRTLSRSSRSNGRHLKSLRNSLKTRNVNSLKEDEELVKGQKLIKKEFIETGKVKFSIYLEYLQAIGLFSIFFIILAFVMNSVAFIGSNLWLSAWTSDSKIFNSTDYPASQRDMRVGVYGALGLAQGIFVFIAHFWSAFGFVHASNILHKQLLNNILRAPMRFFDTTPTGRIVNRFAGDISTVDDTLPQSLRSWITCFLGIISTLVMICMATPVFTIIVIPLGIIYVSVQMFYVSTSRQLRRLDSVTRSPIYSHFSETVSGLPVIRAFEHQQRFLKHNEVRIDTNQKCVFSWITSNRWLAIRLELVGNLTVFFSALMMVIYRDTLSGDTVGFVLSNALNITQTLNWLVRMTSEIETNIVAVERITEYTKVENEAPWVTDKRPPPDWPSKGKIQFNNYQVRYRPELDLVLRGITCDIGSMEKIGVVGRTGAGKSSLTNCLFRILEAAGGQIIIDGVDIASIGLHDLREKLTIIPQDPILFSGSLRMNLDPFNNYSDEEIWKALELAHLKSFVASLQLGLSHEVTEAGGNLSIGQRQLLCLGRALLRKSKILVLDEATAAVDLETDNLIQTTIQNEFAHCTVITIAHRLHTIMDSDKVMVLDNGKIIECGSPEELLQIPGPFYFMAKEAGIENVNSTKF
T1 sequence (Q92887 whole entry): as above

SMILES | inhibition at 5 min, 300 µM (MRP2 (ABCC2)) | IC50 [1] | IC50 [2] | Stimulation of enzyme activity, peak increase [2] | IC50 (μM) [1] | inhibition at 5 min, 100 µM (MRP2 (ABCC2))
O=C(NCc1c(F)cc(F)cc1F)c1cn2c(c(O[C@@H]3O[C@H](C(=O)O)[C@@H](O)[C@H](O)[C@H]3O)c1=O)C(=O)N1[C@H]3CC[C@H](C3)O[C@@H]1C2 [Metabolite M15] | 53% | 256 µM | > 300 µM | 21% |  | 
O=C(NCc1c(F)cc(F)c(OS(=O)(=O)O)c1F)c1cn2c(c(O)c1=O)C(=O)N1C(C2)O[C@@H]2CC[C@H]1C2 (stereo partly shown) [Metabolite M20] | 98% | 45 µM | 153 µM |  |  | 
O=C(NCc1c(F)cc(F)cc1F)c1cn2c(c(O)c1=O)C(=O)N1[C@H]3CC[C@H](C3)O[C@@H]1C2 [BIC, bictegravir, reference compound] |  |  | > 300 µM | 76% | NIO | 
O=C(NCc1c(F)cc(F)c(O)c1F)c1cn2c(c(O)c1=O)C(=O)N1[C@H]3CC[C@H](C3)O[C@@H]1C2 [Metabolite M23] |  | > 100 µM | 256 µM |  |  | 43%
